Measurements from patent US11919901B2 (Syndax Pharmaceuticals, Inc., priority 2021, dated 2024).
pEC50, pKi: −log10 of the molar value.

Target: Menin-MLL (Homo sapiens (Human), UniProt O00255)
Assay: Determination of binding constants (Ki) to Menin-MLL (HTRF)
Conditions: HTRF, 0.25 nM H-FL-Menin, 3.2 nM FITC-MLL-4-43, 24 hr incubation; for pKi: read-out: Menin-MLL Ki HTRF Assay: Ki

Sequence of Menin-MLL (O00255 whole entry): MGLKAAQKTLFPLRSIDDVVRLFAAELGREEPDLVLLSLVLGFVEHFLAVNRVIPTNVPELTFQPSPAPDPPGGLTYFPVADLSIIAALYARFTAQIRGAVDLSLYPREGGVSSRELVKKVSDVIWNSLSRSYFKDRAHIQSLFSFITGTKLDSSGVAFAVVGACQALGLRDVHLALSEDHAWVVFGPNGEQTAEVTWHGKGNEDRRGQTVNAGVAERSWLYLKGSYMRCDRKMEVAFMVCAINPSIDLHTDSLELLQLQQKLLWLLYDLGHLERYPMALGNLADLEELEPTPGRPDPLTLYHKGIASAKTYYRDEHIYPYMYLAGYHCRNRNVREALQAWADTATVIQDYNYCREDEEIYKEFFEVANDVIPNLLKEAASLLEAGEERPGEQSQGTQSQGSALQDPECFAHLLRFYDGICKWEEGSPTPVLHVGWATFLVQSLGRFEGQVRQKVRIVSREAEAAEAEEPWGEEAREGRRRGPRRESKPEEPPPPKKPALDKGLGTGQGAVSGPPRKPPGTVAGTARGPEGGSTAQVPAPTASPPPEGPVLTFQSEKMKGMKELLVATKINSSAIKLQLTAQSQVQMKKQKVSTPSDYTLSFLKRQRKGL

| SMILES | pEC50 | pKi |
| --- | --- | --- |
| CCCNC(=O)N[C@@H]1CC[C@@H](CN2CCC3(CC2)CN(c2ncncc2Oc2ccc(F)cc2C(=O)N(CC)C(C)C)C3)OC1 [Compound 38, N-ethyl-5-fluoro-N-isopropyl-2-((4-(7-(((2S,5R)-5-(3-propylureido)tetrahydro-2H-pyran-2-yl)methyl)-2,7-diazaspiro[3.5]nonan-2-yl)pyrimidin-5-yl)oxy)benzamide] | 7.00 to 7.30 | 8.82 to 9.00 |
| CC(C)N(C(=O)c1cc(F)ccc1Oc1cncnc1N1CC2(CCN(C[C@@H]3CC[C@@H](NS(=O)(=O)N4CCC[C@H]4C)CO3)CC2)C1)[C@@H]1CCOC1 [Compound 204, 5-Fluoro-N-isopropyl-2-((4-(7-(((2S,5R)-5-(((R)-2-methylpyrrolidine)-1-sulfonamido)tetrahydro-2H-pyran-2-yl)methyl)-2,7-diazaspiro[3.5]nonan-2-yl)pyrimidin-5-yl)oxy)-N-((R)-tetrahydrofuran-3-yl)benzamide] | – | > 9.00 |
| Cc1nc(S(=O)(=O)N[C@@H]2CC[C@@H](CN3CCC4(CC3)CN(c3ncncc3Oc3ccc(F)cc3C(=O)N(C(C)C)[C@H]3CCOC3)C4)OC2)cs1 [Compound 135, 5-Fluoro-N-isopropyl-2-((4-(7-(((2S,5R)-5-((2-methylthiazole)-4-sulfonamido)tetrahydro-2H-pyran-2-yl)methyl)-2,7-diazaspiro[3.5]nonan-2-yl)pyrimidin-5-yl)oxy)-N-((S)-tetrahydrofuran-3-yl)benzamide] | – | > 9.00 |
| CC(C)N(C(=O)c1cc(F)ccc1Oc1cncnc1N1CC2(CCN(C[C@@H]3CC[C@@H](NS(=O)(=O)C(C)C)CO3)CC2)C1)[C@H]1CCOC1 [Compound 174, 5-Fluoro-N-isopropyl-2-((4-(7-(((2S,5R)-5-((1-methylethyl)sulfonamido)tetrahydro-2H-pyran-2-yl)methyl)-2,7-diazaspiro[3.5]nonan-2-yl)pyrimidin-5-yl)oxy)-N-((S)-tetrahydrofuran-3-yl)benzamide] | – | > 9.00 |
| CC(C)N(C)C(=O)c1cc(F)ccc1Oc1cncnc1N1CC2(CCN(C[C@@H]3CC[C@@H](NS(=O)(=O)N(C)C)CO3)CC2)C1 [Compound 137, 2-((4-(7-(((2S,5R)-5-((N,N-Dimethylsulfamoyl)amino)tetrahydro-2H-pyran-2-yl)methyl)-2,7-diazaspiro[3.5]nonan-2-yl)pyrimidin-5-yl)oxy)-5-fluoro-N-isopropyl-N-methylbenzamide] | – | > 9.00 |
| CCS(=O)(=O)N[C@@H]1CC[C@@H](CN2CCC3(CC2)CN(c2ncncc2Oc2ccc(F)cc2C(=O)N2[C@H](C)CCC[C@@H]2C)C3)OC1 [Compound 36, N-((3R,6S)-6-((2-(5-(2-((2S,6R)-2,6-dimethylpiperidine-1-carbonyl)-4-fluorophenoxy)pyrimidin-4-yl)-2,7-diazaspiro[3.5]nonan-7-yl)methyl)tetrahydro-2H-pyran-3-yl)ethanesulfonamide] | > 7.30 | > 9.00 |
| CC(C)N(CC(F)F)C(=O)c1cc(F)ccc1Oc1cncnc1N1CC2(CCN(C[C@@H]3CC[C@@H](NS(=O)(=O)N4CC(O)C4)CO3)CC2)C1 [Compound 237, N-(2,2-Difluoroethyl)-5-fluoro-2-((4-(7-(((2S,5R)-5-((3-hydroxyazetidine)-1-sulfonamido)tetrahydro-2H-pyran-2-yl)methyl)-2,7-diazaspiro[3.5]nonan-2-yl)pyrimidin-5-yl)oxy)-N-isopropylbenzamide] | – | > 9.00 |
| CC(C)N(CCC#N)C(=O)c1cc(F)ccc1Oc1cncnc1N1CC2(CCN(C[C@@H]3CC[C@@H](NS(=O)(=O)N4CCC4)CO3)CC2)C1 [Compound 184, 2-((4-(7-(((2S,5R)-5-(Azetidine-1-sulfonamido)tetrahydro-2H-pyran-2-yl)methyl)-2,7-diazaspiro[3.5]nonan-2-yl)pyrimidin-5-yl)oxy)-N-(2-cyanoethyl)-5-fluoro-N-isopropylbenzamide] | – | > 9.00 |
| COCCN(C(=O)c1cc(F)ccc1Oc1cncnc1N1CC2(CCN(C[C@@H]3CC[C@@H](NS(=O)(=O)C4CC4)CO3)CC2)C1)C(C)C [Compound 51, 2-((4-(7-(((2S,5R)-5-(cyclopropanesulfonamido)tetrahydro-2H-pyran-2-yl)methyl)-2,7-diazaspiro[3.5]nonan-2-yl)pyrimidin-5-yl)oxy)-5-fluoro-N-isopropyl-N-(2-methoxyethyl)benzamide] | > 7.30 | – |
| CC(C)NS(=O)(=O)N[C@@H]1CC[C@@H](CN2CCC3(CC2)CN(c2ncncc2Oc2ccc(F)cc2C(=O)N(CC(F)F)C(C)C)C3)OC1 [Compound 150, N-(2,2-Difluoroethyl)-5-fluoro-N-isopropyl-2-((4-(7-(((2S,5R)-5-((N-isopropylsulfamoyl)amino)tetrahydro-2H-pyran-2-yl)methyl)-2,7-diazaspiro[3.5]nonan-2-yl)pyrimidin-5-yl)oxy)benzamide] | – | > 9.00 |
| CC(C)N(C(=O)c1cc(F)ccc1Oc1cncnc1N1CC2(CCN(C[C@@H]3CC[C@@H](NS(=O)(=O)N4CCOCC4)CO3)CC2)C1)C1CC(F)(F)C1 [Compound 116, N-(3,3-Difluorocyclobutyl)-5-fluoro-N-isopropyl-2-((4-(7-(((2S,5R)-5-(morpholine-4-sulfonamido)tetrahydro-2H-pyran-2-yl)methyl)-2,7-diazaspiro[3.5]nonan-2-yl)pyrimidin-5-yl)oxy)benzamide] | > 7.30 | > 9.00 |
| CCS(=O)(=O)N[C@@H]1CC[C@@H](CN2CCC3(CC2)CN(c2ncncc2Oc2ccc(F)cc2C(=O)N(C(C)C)[C@@H]2C[C@@H]4CC[C@H]2O4)C3)OC1 [Compound 251, N-((lR,2R,4S)-7-Oxabicyclo[2.2.1]heptan-2-yl)-2-((4-(7-(((2S,5R)-5-(ethylsulfonamido)tetrahydro-2H-pyran-2-yl)methyl)-2,7-diazaspiro[3.5]nonan-2-yl)pyrimidin-5-yl)oxy)-5-fluoro-N-isopropylbenzamide] | – | > 9.00 |
| CC(C)N(C(=O)c1cc(F)ccc1Oc1cncnc1N1CC2(CCN(C[C@@H]3CC[C@@H](NS(=O)(=O)N4CCC[C@@H]4C)CO3)CC2)C1)C1CCOC1 (stereo partly drawn) [Compound 206, 5-Fluoro-N-isopropyl-2-((4-(7-(((2S,5R)-5-(((S)-2-methylpyrrolidine)-1-sulfonamido)tetrahydro-2H-pyran-2-yl)methyl)-2,7-diazaspiro[3.5]nonan-2-yl)pyrimidin-5-yl)oxy)-N-((S)-tetrahydrofuran-3-yl)benzamide] | – | > 9.00 |
| COC[C@@H]1CCCN1S(=O)(=O)N[C@@H]1CC[C@@H](CN2CCC3(CC2)CN(c2ncncc2Oc2ccc(F)cc2C(=O)N(C(C)C)C(C)C)C3)OC1 [Compound 213, 5-Fluoro-N,N-diisopropyl-2-((4-(7-(((2S,5R)-5-(((S)-2-(methoxymethyl)pyrrolidine)-1-sulfonamido)tetrahydro-2H-pyran-2-yl)methyl)-2,7-diazaspiro[3.5]nonan-2-yl)pyrimidin-5-yl)oxy)benzamide] | – | > 9.00 |
| C[C@@H]1COC[C@H](C)N1C(=O)c1cc(F)ccc1Oc1cncnc1N1CC2(CCN(C[C@@H]3CC[C@@H](NS(C)(=O)=O)CO3)CC2)C1 [Compound 23, N-((3R,6S)-6-((2-(5-(2-((3S,5R)-3,5-dimethylmorpholine-4-carbonyl)-4-fluorophenoxy)pyrimidin-4-yl)-2,7-diazaspiro[3.5]nonan-7-yl)methyl)tetrahydro-2H-pyran-3-yl)methanesulfonamide] | > 7.30 | > 9.00 |
| CC(C)N(C(=O)c1cc(F)ccc1Oc1cncnc1N1CC2(CCN(C[C@@H]3CC[C@@H](NS(=O)(=O)N(C)C)CO3)CC2)C1)C(C)C [Compound 77, 2-((4-(7-(((2S,5R)-5-((N,N-Dimethylsulfamoyl)amino)tetrahydro-2H-pyran-2-yl)methyl)-2,7-diazaspiro[3.5]nonan-2-yl)pyrimidin-5-yl)oxy)-5-fluoro-N,N-diisopropylbenzamide] | > 7.30 | > 9.00 |
| Cc1nc(S(=O)(=O)N[C@@H]2CC[C@@H](CN3CCC4(CC3)CN(c3ncncc3Oc3ccc(F)cc3C(=O)N3[C@H](C)COC[C@@H]3C)C4)OC2)cs1 [Compound 131, N-((3R,6S)-6-((2-(5-(2-((3S,5R)-3,5-Dimethylmorpholine-4-carbonyl)-4-fluorophenoxy)pyrimidin-4-yl)-2,7-diazaspiro[3.5]nonan-7-yl)methyl)tetrahydro-2H-pyran-3-yl)-2-methylthiazole-4-sulfonamide] | – | > 9.00 |
| CC(C)N(C(=O)c1cc(F)ccc1Oc1cncnc1N1CC2(CCN(C[C@@H]3CC[C@@H](NS(=O)(=O)N4CC5(COC5)C4)CO3)CC2)C1)C(C)C [Compound 222, 2-((4-(7-(((2S,5R)-5-(2-Oxa-6-azaspiro[3.3]heptane-6-sulfonamido)tetrahydro-2H-pyran-2-yl)methyl)-2,7-diazaspiro[3.5]nonan-2-yl)pyrimidin-5-yl)oxy)-5-fluoro-N,N-diisopropylbenzamide] | – | > 9.00 |
| CC[S@@](=N)(=O)N[C@@H]1CC[C@@H](CN2CCC3(CC2)CN(c2ncncc2Oc2ccc(F)cc2C(=O)N(C(C)C)C(C)C)C3)OC1 (single isomer, unassigned) [Compound 226] | – | > 9.00 |
| CC(C)N(C)C(=O)c1cc(F)ccc1Oc1cncnc1N1CC2(CCN(C[C@@H]3CC[C@@H](NS(=O)(=O)c4ccn(C)n4)CO3)CC2)C1 [Compound 53, Fluoro-N-isopropyl-N-methyl-2-((4-(7-(((2S,5R)-5-((1-methyl-1H-pyrazole)-3-sulfonamido)tetrahydro-2H-pyran-2-yl)methyl)-2,7-diazaspiro[3.5]nonan-2-yl)pyrimidin-5-yl)oxy)benzamide] | – | > 9.00 |
| CCCS(=O)(=O)N[C@@H]1CC[C@@H](CN2CCC3(CC2)CN(c2ncncc2Oc2ccc(F)cc2C(=O)N(CC)C(C)C)C3)OC1 [Compound 9, N-ethyl-5-fluoro-N-isopropyl-2-((4-(7-(((2S,5R)-5-(propylsulfonamido)tetrahydro-2H-pyran-2-yl)methyl)-2,7-diazaspiro[3.5]nonan-2-yl)pyrimidin-5-yl)oxy)benzamide] | > 7.30 | > 9.00 |
